From patent US11414378B2, “Anti-fungals compounds targeting the synthesis of fungal sphingolipids” (THE RESEARCH FOUNDATION FOR THE STATE UNIVERSITY OF NEW YORK, priority 2017, dated 2022)
In brackets after ≈: the same amount, converted by molar mass.

Tested on: C. neoformans cells
Test: In vitro killing activity (K100) assay
Type: cell-based, Cryptococcus neoformans
Settings: Cryptococcus neoformans; minimum concentration that kills 100% of C. neoformans cells in 48 h
Method: C. neoformans cells from a culture grown overnight were washed in PBS and resuspended in YNB buffered with HEPES at pH 7.4. The cells were counted, and 2×10^4 cells were incubated with different concentration of compounds in a final volume of 10 ml with a final concentration of 0.5% DMSO. The tubes were then incubated at 37° C. with 5% CO2 on a rotary shaker at 200 rpm. Aliquots were taken at time points and diluted, and […] were plated onto Yeast Extract-Peptone-Dextrose (YPD) plates. YPD plates were incubated in a 30° C. incubator and after 48 h, the numbers of CFU were counted and recorded.

SMILES	MFC
O=C(N/N=C/c1cc(Br)cc(Br)c1O)c1ccc(CF)cc1 [Compound A44, 4-Fluromethyl-N′-(3,5-dibromo-2-hydroxybenzylidene)benzohydrazide]	0.5 µg/mL (≈ 1.16 µM)
O=C(N/N=C/c1cc(Br)cc(Br)c1O)c1ncc(Br)cn1 [Compound H1, 5-Bromo-N′-(3,5-dibromo-2-hydroxybenzylidene)pyrimidine-2-carbohydrazide]	> 2 µg/mL
O=C(N/N=C/c1cc(Br)ccc1O)c1ccc(Br)s1 [Compound H2, 5-Bromo-N′-(5-bromo-2-hydroxybenzylidene)thiophene-2-carbohydrazide]	> 0.5 µg/mL
O=C(N/N=C/c1ccc(Br)cc1O)c1ccc(Br)s1 [Compound H3, 5-Bromo-N′-(4-bromo-2-hydroxybenzylidene)thiophene-2-carbohydrazide]	> 0.5 µg/mL
O=C(N/N=C/c1cc(Br)cc(Br)c1O)c1ccc(Br)s1 [Compound H4, 5-Bromo-N′-(3,5-dibromo-2-hydroxybenzylidene)thiophene-2-carbohydrazide]	> 0.25 µg/mL
O=C(N/N=C/c1c(O)ccc2ccccc12)c1ccc(Br)s1 [Compound H5, 5-Bromo-N′-((2-hydroxynaphthalen-1-yl)methylene)thiophene-2-carbohydrazide]	> 0.5 µg/mL
O=C(N/N=C/c1cc(Br)ccc1O)c1cc(Br)c(Br)o1 [Compound H7, 4,5-Dibromo-N′-(5-bromo-2-hydroxybenzylidene) furan-2-carbohydrazide]	> 1 µg/mL
O=C(NN=Cc1ccc(Br)cc1O)c1cc(Br)c(Br)o1 [Compound H8, 4,5-Dibromo-N′-(4-bromo-2-hydroxybenzylidene)furan-2-carbohydrazide]	> 0.25 µg/mL
O=C(N/N=C/c1cc(Br)cc(Br)c1O)c1cc(Br)c(Br)o1 [Compound H9, 4,5-Dibromo-N′-(3,5-dibromo-2-hydroxybenzylidene)furan-2-carbohydrazide]	> 0.5 µg/mL
O=C(N/N=C/c1c(O)ccc2ccccc12)c1cc(Br)c(Br)o1 [Compound H10, 4,5-Dibromo-N′-(2-hydroxynaphthalen-1-yl)methylenefuran-2-carbohydrazide]	> 0.5 µg/mL
O=C(N/N=C/c1cc(Br)ccc1O)c1cc(Br)co1 [Compound H11, 4-Bromo-N′-(5-bromo-2-hydroxybenzylidene)furan-2-carbohydrazide]	> 1 µg/mL
O=C(N/N=C/c1ccc(Br)cc1O)c1cc(Br)co1 [Compound H12, 4-Bromo-N′-(4-bromo-2-hydroxybenzylidene) furan-2-carbohydrazide]	> 2 µg/mL
O=C(N/N=C/c1cc(Br)cc(Br)c1O)c1cc(Br)co1 [Compound H13, 4-bromo-N′-(3,5-dibromo-2-hydroxybenzylidene)furan-2-carbohydrazide]	> 0.25 µg/mL
O=C(N/N=C/c1ccc(Br)cc1O)c1ccoc1 [Compound H14, N′-(4-bromo-2-hydroxybenzylidene) furan-3-carbohydrazide]	> 1 µg/mL
O=C(N/N=C/c1cc(Br)cc(Br)c1O)C1CCOCC1 [Compound H15, N′-(3,5-dibromo-2-hydroxybenzylidene)tetrahydro-2H-pyran-4-carbohydrazide]	> 2 µg/mL

Same assay, conditions: minimum concentration that kills 100% of C. neoformans cells in 48 h

SMILES	K100* (μg/mL)
C#Cc1ccc(C(=O)N/N=C/c2cc(Br)cc(Br)c2O)cc1 [Compound A46, 4-Ethynyl-N′-(3,5-dibromo-2-hydroxybenzylidene)benzohydrazide]	Fungistatic

Tested on: C. neoformans
Test: In vitro killing assay (killing curve, Kapp, 48H killing)
Type: cell-based, Cryptococcus neoformans
Settings: FIG. 1A / FIG. 1B
Method: From an overnight culture, C. neoformans cells were washed in PBS, resuspended in YNB buffered with HEPES at pH 7.4. Cells were counted and 2×10^4 cells were incubated with either 1, 2 or 4 μg/ml of compound in a final volume of 10 ml. Tubes were then incubated at 37° C. in the presence of 5% CO2 on a rotary shaker at 200 rpm. At the illustrated time points, aliquots were taken and diluted and 100 μL was plated onto yeast peptone dextrose (YPD) plates. YPD plates were incubated in a 30° C. incubator and, after 72 hours, colony forming units (CFU) were counted and recorded.

SMILES	Kill characteristics
Cc1ccccc1C(=O)N/N=C/c1cc(Br)ccc1O [Compound 1]	killed C. neoformans in a concentration dependent manner
O=C(N/N=C/c1cc(Br)ccc1O)c1cccc(Br)c1 [Compound 2]	killed C. neoformans in a time dependent manner

Same assay, conditions: Kapp = K0 − Ki (C − Ci); killing curve versus MIC

SMILES	Kapp*
Cc1ccccc1C(=O)N/N=C/c1cc(Br)ccc1O [Compound 1]	0.024
O=C(N/N=C/c1cc(Br)ccc1O)c1cccc(Br)c1 [Compound 2]	−0.142
O=C(N/N=C/c1cc(Br)cc(Br)c1O)c1ccc(Br)cc1 [Compound 13]	−0.428
O=C(N/N=C/c1cc(Br)ccc1O)c1cc(Br)cc(Br)c1O [Compound 17]	0.077

Tested on: C. neoformans
Test: In vitro susceptibility (MIC80) assay
Type: cell-based
Settings: Cryptococcus neoformans; lowest concentration that inhibited 80% of growth; YNB pH 7.0, HEPES, 37° C., 5% CO2
Method: MICs was determined following the methods of the Clinical and Laboratory Standards Institutes (CLSI) with modifications. Yeast Nitrogen Base (YNB) medium (pH 7.0, 0.2% glucose) buffered with HEPES was used for MIC studies. […] The compound was serially diluted from 16 to 0.03 μg/ml, in a 96-well plate. The inoculum was prepared as described in the CLSI protocol M27A3 guidelines. The plates were incubated at 37° C. with 5% CO2 for 24 to 72 h and the optical density was measure at 450 nm. The MICs was determined as the lowest concentration of the compound that inhibited 80% of growth compared to the control.

MIC80	SMILES
0.5 µg/mL (≈ 1.16 µM)	O=C(N/N=C/c1cc(Br)cc(Br)c1O)c1ccc(CF)cc1 [Compound A44, 4-Fluromethyl-N′-(3,5-dibromo-2-hydroxybenzylidene)benzohydrazide]
0.12 µg/mL (≈ 0.284 µM)	C#Cc1ccc(C(=O)N/N=C/c2cc(Br)cc(Br)c2O)cc1 [Compound A46, 4-Ethynyl-N′-(3,5-dibromo-2-hydroxybenzylidene)benzohydrazide]
0.25 µg/mL (≈ 0.522 µM)	O=C(N/N=C/c1cc(Br)cc(Br)c1O)c1ncc(Br)cn1 [Compound H1, 5-Bromo-N′-(3,5-dibromo-2-hydroxybenzylidene)pyrimidine-2-carbohydrazide]
0.12 µg/mL (≈ 0.297 µM)	O=C(N/N=C/c1cc(Br)ccc1O)c1ccc(Br)s1 [Compound H2, 5-Bromo-N′-(5-bromo-2-hydroxybenzylidene)thiophene-2-carbohydrazide]
0.12 µg/mL (≈ 0.297 µM)	O=C(N/N=C/c1ccc(Br)cc1O)c1ccc(Br)s1 [Compound H3, 5-Bromo-N′-(4-bromo-2-hydroxybenzylidene)thiophene-2-carbohydrazide]
0.06 µg/mL (≈ 0.124 µM)	O=C(N/N=C/c1cc(Br)cc(Br)c1O)c1ccc(Br)s1 [Compound H4, 5-Bromo-N′-(3,5-dibromo-2-hydroxybenzylidene)thiophene-2-carbohydrazide]
0.12 µg/mL (≈ 0.32 µM)	O=C(N/N=C/c1c(O)ccc2ccccc12)c1ccc(Br)s1 [Compound H5, 5-Bromo-N′-((2-hydroxynaphthalen-1-yl)methylene)thiophene-2-carbohydrazide]
0.25 µg/mL (≈ 0.535 µM)	O=C(N/N=C/c1cc(Br)ccc1O)c1cc(Br)c(Br)o1 [Compound H7, 4,5-Dibromo-N′-(5-bromo-2-hydroxybenzylidene) furan-2-carbohydrazide]
0.06 µg/mL (≈ 0.129 µM)	O=C(NN=Cc1ccc(Br)cc1O)c1cc(Br)c(Br)o1 [Compound H8, 4,5-Dibromo-N′-(4-bromo-2-hydroxybenzylidene)furan-2-carbohydrazide]
0.12 µg/mL (≈ 0.22 µM)	O=C(N/N=C/c1cc(Br)cc(Br)c1O)c1cc(Br)c(Br)o1 [Compound H9, 4,5-Dibromo-N′-(3,5-dibromo-2-hydroxybenzylidene)furan-2-carbohydrazide]
0.12 µg/mL (≈ 0.274 µM)	O=C(N/N=C/c1c(O)ccc2ccccc12)c1cc(Br)c(Br)o1 [Compound H10, 4,5-Dibromo-N′-(2-hydroxynaphthalen-1-yl)methylenefuran-2-carbohydrazide]
0.25 µg/mL (≈ 0.644 µM)	O=C(N/N=C/c1cc(Br)ccc1O)c1cc(Br)co1 [Compound H11, 4-Bromo-N′-(5-bromo-2-hydroxybenzylidene)furan-2-carbohydrazide]
0.5 µg/mL (≈ 1.29 µM)	O=C(N/N=C/c1ccc(Br)cc1O)c1cc(Br)co1 [Compound H12, 4-Bromo-N′-(4-bromo-2-hydroxybenzylidene) furan-2-carbohydrazide]
0.06 µg/mL (≈ 0.129 µM)	O=C(N/N=C/c1cc(Br)cc(Br)c1O)c1cc(Br)co1 [Compound H13, 4-bromo-N′-(3,5-dibromo-2-hydroxybenzylidene)furan-2-carbohydrazide]
0.5 µg/mL (≈ 1.62 µM)	O=C(N/N=C/c1ccc(Br)cc1O)c1ccoc1 [Compound H14, N′-(4-bromo-2-hydroxybenzylidene) furan-3-carbohydrazide]
0.5 µg/mL (≈ 1.23 µM)	O=C(N/N=C/c1cc(Br)cc(Br)c1O)C1CCOCC1 [Compound H15, N′-(3,5-dibromo-2-hydroxybenzylidene)tetrahydro-2H-pyran-4-carbohydrazide]

Tested on: A549
Test: A549 toxicity
Type: cell-based
Settings: Example 2 table

SMILES	A549
Cc1ccccc1C(=O)N/N=C/c1cc(Br)ccc1O [Compound 1]	32
O=C(N/N=C/c1cc(Br)ccc1O)c1cccc(Br)c1 [Compound 2]	64
O=C(N/N=C/c1cc(Br)cc(Br)c1O)c1ccc(Br)cc1 [Compound 13]	>128
O=C(N/N=C/c1cc(Br)ccc1O)c1cc(Br)cc(Br)c1O [Compound 17]	16

Tested on: C. neoformans
Test: In vitro susceptibility testing (MIC / IC80)
Type: cell-based, Cryptococcus neoformans
Settings: Example 2 table
Method: Minimal inhibitory concentration (MIC) was determined following the methods of the Clinical Laboratory Standards Institutes (CLSI) with modifications. MIC studies used either RPMI or YNB medium (pH 7.0, 0.2% glucose) buffered with HEPES. […] The compound was serially diluted from 32 to 0.03 μg/ml or 19 to 0.02 μg/ml respectively in a 96 well plate with the respective medium. The yeast inoculum was prepared as described in the CLSI protocol M27-A3 guidelines. Plates were incubated at 37° C. and in the presence of 5% CO2 for 24-96 hours. Against all fungal isolates used in the initial susceptibility screen, the MICs were determined as the lowest concentration of the drug that inhibited 50% of growth compared to the control. MIC80 and MIC100, whose drug concentrations inhibited 80% and 100% growth compared to the control respectively, were also determined. For antibacterial activity, E. coli DH5a and P. aeruginosa PA14 were grown overnight in Luria Bertani (LB) broth at 30° C. The cells were washed with PBS and counted. Then, 300 μL from 2×10^8 cells/mL was spreaded onto LB agar plate using a hockey stick glass spreader. The plate was dried, and wells were punched out using a cut tip. Fifty microliters of different drug concentration was added to the well. The plate was then incubated at 30° C. for 24 hours.

MIC	SMILES
1 µg/mL (≈ 3 µM)	Cc1ccccc1C(=O)N/N=C/c1cc(Br)ccc1O [Compound 1]
0.25 µg/mL (≈ 0.628 µM)	O=C(N/N=C/c1cc(Br)ccc1O)c1cccc(Br)c1 [Compound 2]
0.06 µg/mL (≈ 0.126 µM)	O=C(N/N=C/c1cc(Br)cc(Br)c1O)c1ccc(Br)cc1 [Compound 13]
0.5 µg/mL (≈ 1.01 µM)	O=C(N/N=C/c1cc(Br)ccc1O)c1cc(Br)cc(Br)c1O [Compound 17]
